Here are results for one substance from patent US8163699B2, “Method for the treatment of valvular disease” (Montreal Heart Institute, priority 2006, dated 2012).

The subject of one assay is aortic valve lesions. In words: Histochemistry of aortic valves (von Kossa, filipin, Sirius red, immunohistochemistry) in rabbit model of aortic valve stenosis. It is filed as in vivo, New-Zealand White rabbits. The text has this: An animal model adapted from that described by Drolet et al. (12) was used. Fifteen male New-Zealand White rabbits (2.7-3.0 kg, aged 12-13 weeks) were fed with a 0.5% cholesterol-enriched diet (Harlan, Indianapolis, Ind.) plus vitamin D2 (50000 UI per day; Sigma, Markham, Canada) in the drinking water until significant AVS, as defined by a decrease ≧10% of aortic valve area (AVA) or of the transvalvular velocities ratio (V1/V2), could be detected by echocardiography (12.9±2.4 weeks). The animals then returned to a standard diet (without vitamin D2) to mimic cholesterol lowering and were randomly assigned to receive either saline (control group, n=8) or the ApoA-1 mimetic peptide (treated group, n=7). Rabbits were given injections through the marginal ear vein of saline or of the ApoA-1 mimetic peptide (25 mg/kg) complexed with phospholipids (Compound A), 3 times per week for 2 weeks. Echocardiograms were performed serially (see Echocardiography Methods) every 3 to 4 days throughout the randomized treatment period. Two days after their last infusion, the animals underwent a final echocardiogram and were sacrificed, and the aortic valves were harvested for histological analyses. Blood samples were obtained through the ear artery at baseline, prior to treatment and before sacrifice. Total cholesterol, HDL cholesterol, triglycerides and calcium levels were measured with an automated filter photometer system (Dimension RxL Max, Dade Behring, Ill.). Hematoxylin-phloxin-safran, von Kossa and Sirius red (F3B, BDH, UK) stained sections were prepared for routine examination, tissue calcification and collagen studies respectively. Collagen fibers types I and III were quantified as previously described (13), on Sirius red picric acid stained sections under polarized light. For immunohistochemistry evaluation, all sections were preincubated with either mouse IgG2a monoclonal antibody against rabbit macrophage (RAM11, Dako, Canada) (1:100 dilution) or rabbit smooth muscle cell α-actin (Clone 1A4, Dako, Canada) (1:200 dilution). Species-appropriate biotinylated secondary antibodies were applied, followed by streptavidin horseradish peroxidase complex, visualized with azoethylcarbazol (AEC) and counterstained by Mayer's hematoxylin. Smooth muscle cells, macrophages and calcification areas were quantified in the ROA on digital images acquired at 40× magnification. Images from each section were digitally captured with the same illumination settings, and automatic computer-based analysis was performed with the same color threshold for all specimens. Data were expressed as percent labelled area in ROA. For assessment of tissue free cholesterol, 5 μm cryosections fixed in 4% paraformaldehyde in PBS (pH 7.4) were stained with filipin (13). Sections were incubated for 1 hour at room temperature in filipin complex (Sigma, Canada) dissolved in DMSO and diluted in PBS, mounted in Vectashield (Vector Laboratories, USA) and viewed by fluorescence microscopy using a Zeiss Axiovert 200M microscope with the DAPI filter set. Images were acquired with an AxioCam MRm digital camera mounted with a 0.63× C-mount adapter. Filipin data were expressed as arbitrary units of fluorescence intensity. Data are presented as mean±standard deviation. For the “pre-treatment” period, repeated measures analysis of variance (ANOVA) models were used to study the echocardiographic and serum measurements across time and between groups (treated vs. control groups). Models with time, group and group×time interaction as independent variables were used and comparisons between groups at a given time point were undertaken only in the presence of a significant group×time interaction. Otherwise, global conclusions were drawn based on the main group effects of the model. […]

The nature of assay [1]: Serum lipids and calcemia in rabbit model of aortic valve stenosis. It is filed as in vivo, New-Zealand White rabbits. The following applies: for HDL-cholesterol / total cholesterol levels: treated group. Here is the method:
The animals then returned to a standard diet (without vitamin D2) to mimic cholesterol lowering and were randomly assigned to receive either saline (control group, n=8) or the ApoA-1 mimetic peptide (treated group, n=7). Rabbits were given injections through the marginal ear vein of saline or of the ApoA-1 mimetic peptide (25 mg/kg) complexed with phospholipids (Compound A), 3 times per week for 2 weeks. Echocardiograms were performed serially (see Echocardiography Methods) every 3 to 4 days throughout the randomized treatment period. Two days after their last infusion, the animals underwent a final echocardiogram and were sacrificed, and the aortic valves were harvested for histological analyses. Blood samples were obtained through the ear artery at baseline, prior to treatment and before sacrifice. Total cholesterol, HDL cholesterol, triglycerides and calcium levels were measured with an automated filter photometer system (Dimension RxL Max, Dade Behring, Ill.).
Data are presented as mean±standard deviation. For the “pre-treatment” period, repeated measures analysis of variance (ANOVA) models were used to study the echocardiographic and serum measurements across time and between groups (treated vs. control groups). Models with time, group and group×time interaction as independent variables were used and comparisons between groups at a given time point were undertaken only in the presence of a significant group×time interaction. Otherwise, global conclusions were drawn based on the main group effects of the model. For the randomized treatment period, repeated measures analysis of covariance (ANCOVA) models were used to study the echocardiographic and serum measurements across time and between groups (treated vs. control groups), adjusted for the baseline value of the response variable. The group×time interaction was also included in the ANCOVA models and comparisons between groups at a given time point were undertaken only in the presence of a significant group×time interaction. Otherwise, global conclusions were drawn based on the main group effects of the model. Histological variables were compared between treated and control groups using Student t-test. Relationships between histomorphometry and echocardiographic variables were evaluated using Pearson correlation coefficient. All analyses were performed with SAS release 8.2 (SAS Institute Inc., Cary, N.C.) and conducted at the 0.05 significance level.

The mark [2] stands for this setting: treated rabbits, Sirius red, polarized light.
Setting [3] is: at the time of randomization (pre-treatment value).

For “H-Pro-Val-Leu-Asp-Leu-Phe-Arg-Glu-Leu-Leu-Asn-Glu-Leu-Leu-Glu-Ala-Leu-Lys-Gln-Lys-Leu-Lys-OH (H-PVLDLFRELLNELLEALKQKLK-OH; not fully specified) [ApoA-1 mimetic peptide, ApoA-1 mimetic peptide complexed with phospholipids, mimicking nascent HDL]”, the “decrease in free cholesterol compared to controls” value with aortic valve lesions (treated animals vs. controls, first 10 μm at luminal edge of lesions, not statistically significant, P=0.231) worked out at 41%. The “free cholesterol (filipin fluorescent signal)” value in the assay on aortic valve lesions (treated animals, within the first 10 μm at the luminal edge of lesions) is recorded as 221±54 arbitrary units of fluorescence intensity. In addition, the “percentage of rabbits with calcium deposits in the lesion core in the sinuses of Valsalva” value in the assay on aortic valve lesions (treated group) came out at 57%. Moreover, in the assay on aortic valve lesions (treated group vs. controls, von Kossa staining, strong trend, P=0.063), the “decrease of calcification area compared to controls” value is reported as 77%. Further, the “percentage of the sinus of Valsalva area occupied by calcifications” value in the assay with aortic valve lesions (treated group, von Kossa staining) is listed as 1.6±2.0%. In addition, in the assay with aortic valve lesions (setting [2]), the “percentage of collagen type I fibers in the ROA” value is 5.5±5.6 %/ROA and the “percentage of collagen type III fibers in the ROA” value is reported as 19.1±11.3 %/ROA. Besides, the macrophage areas result in the assay on aortic valve lesions (treated vs. control group, RAM11 immunohistochemistry) is listed as “no significant differences between groups”. For the same substance, the α-actin positive areas result in the assay on aortic valve lesions (treated vs. control group, smooth muscle cell α-actin immunohistochemistry) was “no significant differences between groups”. In assay [1] (at end of treatment), the HDL-cholesterol was 0.45 ± 0.17 mmol/L and the total cholesterol levels was 17.57 ± 10.32 mmol/L. In assay [1] (setting [3]), the HDL-cholesterol was 0.50 ± 0.15 mmol/L and the total cholesterol levels was 20.13 ± 5.18 mmol/L. Moreover, the triglyceride levels result in assay [1] (treated vs. control group during treatment period, P=0.544) is on record as “similar”.
